Measurements reported in US8691761B2, “Somatostatin receptor 2 antagonists” (priority 2006, dated 2014).
Bridge positions count the residues as written; N and C are the ends. Square brackets hold non-standard residues; d marks the D form. Peptide text beside a SMILES is read from it. Phe(4-NHCONH2) = NC(=O)Nc1ccc(C[C@H](N)C(=O)O)cc1; dTrp(5-F) = N[C@H](Cc1c[nH]c2ccc(F)cc12)C(=O)O; Phe(4-Cl) = N[C@@H](Cc1ccc(Cl)cc1)C(=O)O; 2Nal = N[C@@H](Cc1ccc2ccccc2c1)C(=O)O

Columns and labels:
hSSTR5 = molecular target: T1, hSSTR5 (Homo sapiens, UniProt P35346); assay: Receptor autoradiography, displacement of 125I-[Leu8,D-Trp22,Tyr25]-SRIF-28 from membrane pellet sections; format: binding; conditions: Table 3; mean ± SEM when N ≧ 3; read-out: sst5 binding affinity (IC50)
T1 construct: expressed in transfected cells; host or cells: CHO-K1 or CCL39 cells
Description: (§1) Generally, recombinant cells expressing the receptor are washed and homogenized to prepare a crude protein homogenate in a suitable buffer. In a typical assay, an amount of protein from the cell homogenate is placed into a small volume of an appropriate assay buffer at an appropriate pH. Candidate substances, such as potential SRIF agonists and antagonists, are added to the admixture in convenient concentrations, and the interaction between the candidate substance and the receptor polypeptide is monitored.
(§2) In vitro Bioassay: The effects of the various somatostatin analogs were tested in vitro for their ability to bind to isolated cloned receptors expressed on CHO-K1 cells and CCL39 cells. The molecular cloning of the genes encoding multiple somatostatin receptor subtypes permitted the individual expression of these receptors in mammalian cells and the characterization of their respective pharmacological profiles.
(§3) CHO-K1 cells were grown in Ham's F-12 medium, and CCL39 cells were grown in Dulbecco's modified Eagle's medium/Ham's F-12(1:1) mix, supplemented with 10% fetal bovine serum, 100 U/ml penicillin and 100 μg/ml streptomycin, in humidified air containing 5% CO2 at 37° C. Cells were washed twice with and scraped into ice-cold 0.05 M Tris-HCl (pH 7.4), collected by centrifugation, and homogenized using a rotor/stator/system in the same buffer. After centrifugation at 120 g for 5 min at 4° C., the supernatant was collected and centrifuged again at 48,000 g for 30 min at 4° C. The resulting pellet was resuspended in ice-cold Tris buffer, transferred into a microfuge tube, and centrifuged at 20,000 g for 15 min at 4° C. After withdrawal of the supernatant, the membrane pellet was stored at −80° C.
(§4) Receptor autoradiography was performed on 20 μm thick cryostat sections of the membrane pellets, mounted on microscope slides, and then stored at −20° C. […] Increasing concentrations of the unlabeled peptide were used ranging from 0.1-1000 nM. […] IC50 values were calculated after quantification of the data using a computer-assisted image processing system as known in this art.
(§5) The numbers in parentheses indicate the number of times the particular binding test was carried out.
(§6) Receptor autoradiography. Cell membrane pellets were prepared as previously described, and stored at −80° C. Receptor autoradiography was performed on 20-μm thick cryostat (Microm HM 500, Walldorf, Germany) sections of the membrane pellets, mounted on microscope slides, and then stored at −20° C. […] After a brief dip in distilled water to remove excess salts, the sections were dried quickly and exposed for 1 week to Kodak BioMax MR film. IC50 values were calculated after quantification of the data using a computer-assisted image processing system as described previously. […] (Reubi, J. C. “In vitro identification of vasoactive intestinal peptide receptors in human tumors: Implications for tumor imaging.” J. Nucl. Med. 1995, 36, 1846-1853).
(§7) To investigate their ssts binding properties, the peptides were tested for their ability to bind to cryostat sections from membrane pellets of cells expressing the five human ssts (Table 3).

hSSTR4 = molecular target: T2, hSSTR4 (Homo sapiens, UniProt P31391); assay: as above; format: binding; conditions: Table 3; mean ± SEM when N ≧ 3; read-out: sst4 binding affinity (IC50)
T2 construct: expressed in transfected cells; host or cells: CHO-K1 or CCL39 cells
Description: as §1, §2, §3, §4, §5, §6, §7

hSSTR1 = molecular target: T3, hSSTR1 (Homo sapiens, UniProt P30872); assay: as above; format: binding; conditions: Table 3; mean ± SEM when N ≧ 3; read-out: sst1 binding affinity (IC50)
T3 construct: expressed in transfected cells; host or cells: CHO-K1 or CCL39 cells
Description: as §1, §2, §3, §4, §5, §6, §7

hSSTR3 = molecular target: T4, hSSTR3 (Homo sapiens, UniProt P32745); assay: as above; format: binding; conditions: Table 3; mean ± SEM when N ≧ 3; read-out: sst3 binding affinity (IC50)
T4 construct: expressed in transfected cells; host or cells: CHO-K1 or CCL39 cells
Description: as §1, §2, §3, §4, §5, §6, §7

hSSTR2 = molecular target: T5, hSSTR2 (Homo sapiens, UniProt P30874); assay: as above; format: binding; conditions: Table 3; mean ± SEM when N ≧ 3; read-out: sst2 binding affinity (IC50)
T5 construct: expressed in transfected cells; host or cells: CHO-K1 or CCL39 cells
Description: as §1, §2, §3, §4, §5, §6, §7

human sst2A receptor = molecular target: T6, human sst2A receptor (Homo sapiens, UniProt P30874); assay: Immunofluorescence-based sst2 internalization assay in HEK-sst2 cells; format: cell-based; conditions: n ≧ 2
T6 construct: expressed in transfected cells; host or cells: HEK293 (HEK-sst2)
Description: Immunofluorescence-based sst2 Internalization Assay. Immunofluorescence microscopy-based internalization assay for sst2 was performed with HEK-sst2 using the sst2-specific antibody R2-88 as described elsewhere herein. HEK-sst2 cells were treated either with vehicle alone, the sst2 agonist [Tyr^3]-octreotide at a concentration of 100 nM, [Tyr^3]-octreotide at a concentration of 100 nM in the presence of an excess of the SRIF analogues to be tested (100 times the concentration of [Tyr^3]-octreotide), or with the SRIF analogues to be tested alone at a concentration of 10 μM, and then processed for immunofluorescence microscopy as described previously.

sst2 = sst2 (Homo sapiens, UniProt P30874); assay: Calcium release assay in HEK-sst2 cells (Fluo-4NW); format: cell-based; parameters: expressed in transfected cells; host or cells: HEK293 (HEK-sst2); conditions: n ≧ 2
Description: Calcium release assay. Intracellular calcium release was measured in HEK-sst2 using the Fluo-4NW Calcium Assay kit as described previously (Magrys, et al. “The role of anti-alpha-enolase autoantibodies in pathogenicity of autoimmune-mediated retinopathy.” J. Clin. Immunol. 2007, 27, 181-192; Michel et al. “The Nef protein of human immunodeficiency virus is a broad-spectrum modulator of chemokine receptor cell surface levels that acts independently of classical motifs for receptor endocytosis and Galphai signaling.” Mol. Biol. Cell. 2006, 17, 3578-3590). In brief, HEK-sst2 cells were seeded (25,000 cells per well) in poly-D-lysine (20 μg/mL) coated 96 well plates and cultured for 1 day at 37° C. and 5% CO2 in culture medium. At the day of the experiment, the cells were washed with assay buffer (1×HBSS, 20 mM HEPES) containing 2.5 mM probenecid, and then loaded with 100 μL/well Fluo-4NW dye in assay buffer containing 2.5 mM probenecid for 30 min at 37° C. and 5% CO2 and then for further 30 min at room temperature. To measure the intracellular calcium mobilization after stimulation with the SRIF analogues to be tested, the dye-loaded cells were transferred to a SpectraMax M2^e (Molecular Devices, Sunnyvale, Calif.). Intracellular calcium mobilization was recorded in a kinetic for 60 sec at room temperature monitoring fluorescence emission at 520 nm (with λex=485 nm) in the presence of the analogues at the concentrations indicated. Maximum fluorescence (Fmax) was measured after the addition of 25 μM ionomycin. Baseline (control) measurements were taken for dye-loaded, untreated cells. Data are shown as percentage of Fmax (% Fmax) as reported previously. (Magrys, et al. J. Clin. Immunol. 2007, 27, 181-192; Michel et al. Mol. Biol. Cell. 2006, 17, 3578-3590). All experiments were repeated at least three times in triplicate.

T1 sequence (P35346 whole entry): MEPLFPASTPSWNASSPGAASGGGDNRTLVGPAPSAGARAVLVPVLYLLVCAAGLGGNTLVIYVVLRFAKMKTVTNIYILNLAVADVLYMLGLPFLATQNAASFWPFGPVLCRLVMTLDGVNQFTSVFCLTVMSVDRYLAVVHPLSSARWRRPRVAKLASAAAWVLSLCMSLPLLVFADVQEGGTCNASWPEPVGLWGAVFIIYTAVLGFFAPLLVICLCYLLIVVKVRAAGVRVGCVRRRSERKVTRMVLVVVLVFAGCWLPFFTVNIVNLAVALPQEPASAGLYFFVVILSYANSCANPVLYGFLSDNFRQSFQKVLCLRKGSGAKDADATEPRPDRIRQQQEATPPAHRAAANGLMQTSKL
T2 sequence (P31391 whole entry): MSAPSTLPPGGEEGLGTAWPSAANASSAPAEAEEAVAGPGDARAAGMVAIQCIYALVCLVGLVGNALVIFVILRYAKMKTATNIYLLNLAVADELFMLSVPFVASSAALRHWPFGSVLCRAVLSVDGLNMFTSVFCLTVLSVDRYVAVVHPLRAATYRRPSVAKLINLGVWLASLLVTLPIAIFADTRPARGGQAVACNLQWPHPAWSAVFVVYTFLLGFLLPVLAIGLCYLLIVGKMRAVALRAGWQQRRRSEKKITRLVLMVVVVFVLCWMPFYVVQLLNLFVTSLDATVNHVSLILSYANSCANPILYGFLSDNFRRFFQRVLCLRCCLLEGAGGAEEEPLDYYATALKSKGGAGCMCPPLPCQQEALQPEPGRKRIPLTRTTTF
Chain of sst2 (P30874 whole entry): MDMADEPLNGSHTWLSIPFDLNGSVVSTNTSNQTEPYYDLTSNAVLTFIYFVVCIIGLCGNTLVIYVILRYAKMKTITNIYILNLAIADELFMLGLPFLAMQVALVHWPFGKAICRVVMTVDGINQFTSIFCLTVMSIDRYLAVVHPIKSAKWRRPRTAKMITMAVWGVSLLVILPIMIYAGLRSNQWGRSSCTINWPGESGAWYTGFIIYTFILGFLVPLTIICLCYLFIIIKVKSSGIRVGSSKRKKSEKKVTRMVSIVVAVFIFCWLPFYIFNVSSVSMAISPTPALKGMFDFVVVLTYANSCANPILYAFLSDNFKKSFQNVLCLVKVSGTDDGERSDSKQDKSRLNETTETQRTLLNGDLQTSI
T5 sequence (P30874 whole entry): as above
T6 sequence (P30874 whole entry): as above
T3 sequence (P30872 whole entry): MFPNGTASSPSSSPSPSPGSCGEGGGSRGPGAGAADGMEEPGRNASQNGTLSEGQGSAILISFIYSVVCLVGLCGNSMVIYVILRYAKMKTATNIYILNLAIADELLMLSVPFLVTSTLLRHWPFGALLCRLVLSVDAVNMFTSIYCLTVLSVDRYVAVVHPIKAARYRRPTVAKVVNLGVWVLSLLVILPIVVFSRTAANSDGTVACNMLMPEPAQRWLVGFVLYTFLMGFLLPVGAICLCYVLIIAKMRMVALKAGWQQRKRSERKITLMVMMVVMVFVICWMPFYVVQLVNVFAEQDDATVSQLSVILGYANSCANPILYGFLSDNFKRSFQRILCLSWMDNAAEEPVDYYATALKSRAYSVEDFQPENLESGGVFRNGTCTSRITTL
T4 sequence (P32745 whole entry): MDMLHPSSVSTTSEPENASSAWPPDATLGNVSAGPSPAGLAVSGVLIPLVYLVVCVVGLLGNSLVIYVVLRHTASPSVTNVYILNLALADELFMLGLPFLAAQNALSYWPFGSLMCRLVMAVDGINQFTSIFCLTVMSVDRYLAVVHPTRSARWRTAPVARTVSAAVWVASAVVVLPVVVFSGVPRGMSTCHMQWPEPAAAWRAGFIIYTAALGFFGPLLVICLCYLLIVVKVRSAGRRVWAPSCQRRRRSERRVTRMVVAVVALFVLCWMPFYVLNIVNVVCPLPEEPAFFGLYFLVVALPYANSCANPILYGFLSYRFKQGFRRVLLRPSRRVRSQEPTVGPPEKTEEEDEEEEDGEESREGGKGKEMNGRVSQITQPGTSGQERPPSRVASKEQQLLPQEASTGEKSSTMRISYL

Row | IC50 (hSSTR5) | IC50 (hSSTR4) | IC50 (hSSTR1) | IC50 (hSSTR3) | IC50 (hSSTR2) | sst2-internalization tested in vitro in HEK-sst2 cells (function) (human sst2A receptor) | Calcium release tested in vitro in HEK-sst2 cells (function) (sst2) | SMILES
1 | > 1000 nM | > 1000 nM | > 1000 nM | 124 ± 53 nM | 46 ± 13 nM | Antagonist | Antagonist | C[C@@H](O)[C@@H]1NC(=O)[C@H](CCCCN)NC(=O)[C@@H](Cc2c[nH]c3ccccc23)NC(=O)[C@H](Cc2ccc(NC(N)=O)cc2)NC(=O)[C@H](NC(=O)[C@H](Cc2ccc(Cl)cc2)NC(=O)CCNC(=O)CN2CCN(CC(=O)O)CCN(CC(=O)O)CCN(CC(=O)O)CC2)CSSC[C@@H](C(=O)N[C@@H](Cc2ccc3ccccc3c2)C(N)=O)NC1=O [compound 15, DOTA-βAla-Cpa-c[DCys-Aph(Cbm)-DTrp-Lys-Thr-Cys]-2Nal-NH2]
2 | 461 ± 106 nM | > 1000 nM | > 1000 nM | 138 ± 52 nM | 5.9 ± 1.8 nM | Antagonist | Antagonist | C[C@@H](O)[C@@H]1NC(=O)[C@H](CCCCN)NC(=O)[C@@H](Cc2c[nH]c3ccccc23)NC(=O)[C@H](Cc2ccc(NC(N)=O)cc2)NC(=O)[C@H](NC(=O)[C@@H](N)Cc2ccc(Cl)cc2)CSSC[C@@H](C(N)=O)NC1=O [compound 17, H2N-Cpa-c[DCys-Aph(Cbm)-DTrp-Lys-Thr-Cys]-NH2] (H-[Phe(4-Cl)][dC][Phe(4-NHCONH2)][dW]KTC-NH2; disulfide 2-7)
3 | 94 ± 34 nM | 287 ± 64 nM | > 1000 nM | 50 ± 5.8 nM | 4.9 ± 1.5 nM | Antagonist | Antagonist | C[C@@H](O)[C@@H]1NC(=O)[C@H](CCCCN)NC(=O)[C@@H](Cc2c[nH]c3ccc(F)cc23)NC(=O)[C@H](Cc2ccc(NC(N)=O)cc2)NC(=O)[C@H](NC(=O)[C@@H](N)Cc2ccc(Cl)cc2)CSSC[C@@H](C(=O)N[C@@H](Cc2ccc3ccccc3c2)C(N)=O)NC1=O [compound 25, H2N-Cpa-c[DCys-Aph(Cbm)-5F-DTrp-Lys-Thr-Cys]-2Nal-NH2] (H-[Phe(4-Cl)][dC][Phe(4-NHCONH2)][dTrp(5-F)]KTC[2Nal]-NH2; disulfide 2-7)
